The source of these data is PubChem BioAssay AID493225 (Broad Institute, 2011).

Values joined by “and” are separate entries in the source; they are usually repeats but may differ in a detail not shown here. Equal entries are not always repeated. Active and inactive are the calls of the source.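 How the source made its calls: active means fitted curve reaching 40% activation, where positive control equals 100, at or below the top valid dose; inconclusive means flat curve between 30 and 70% activation, or a poor fit; inactive means the rest, including activity in the opposite direction.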 Bounds are passed on as bounds.

The target in one assay is Hypoxia-inducible factor 1-alpha (Homo sapiens) (UniProt Q16665). Kind of assay: HIF1A nuclear translocation activators in U2OS – imaging, U2OS GFP-HIF1alpha, high content, dry powder, set 2, orthogonal assay for HIF activator project, dose response (AID 493225). To be noted: U2OS GFP-HIF1alpha nuclear intensity imaging.
Chain of Hypoxia-inducible factor 1-alpha (Homo sapiens) (Q16665 whole entry, looked up): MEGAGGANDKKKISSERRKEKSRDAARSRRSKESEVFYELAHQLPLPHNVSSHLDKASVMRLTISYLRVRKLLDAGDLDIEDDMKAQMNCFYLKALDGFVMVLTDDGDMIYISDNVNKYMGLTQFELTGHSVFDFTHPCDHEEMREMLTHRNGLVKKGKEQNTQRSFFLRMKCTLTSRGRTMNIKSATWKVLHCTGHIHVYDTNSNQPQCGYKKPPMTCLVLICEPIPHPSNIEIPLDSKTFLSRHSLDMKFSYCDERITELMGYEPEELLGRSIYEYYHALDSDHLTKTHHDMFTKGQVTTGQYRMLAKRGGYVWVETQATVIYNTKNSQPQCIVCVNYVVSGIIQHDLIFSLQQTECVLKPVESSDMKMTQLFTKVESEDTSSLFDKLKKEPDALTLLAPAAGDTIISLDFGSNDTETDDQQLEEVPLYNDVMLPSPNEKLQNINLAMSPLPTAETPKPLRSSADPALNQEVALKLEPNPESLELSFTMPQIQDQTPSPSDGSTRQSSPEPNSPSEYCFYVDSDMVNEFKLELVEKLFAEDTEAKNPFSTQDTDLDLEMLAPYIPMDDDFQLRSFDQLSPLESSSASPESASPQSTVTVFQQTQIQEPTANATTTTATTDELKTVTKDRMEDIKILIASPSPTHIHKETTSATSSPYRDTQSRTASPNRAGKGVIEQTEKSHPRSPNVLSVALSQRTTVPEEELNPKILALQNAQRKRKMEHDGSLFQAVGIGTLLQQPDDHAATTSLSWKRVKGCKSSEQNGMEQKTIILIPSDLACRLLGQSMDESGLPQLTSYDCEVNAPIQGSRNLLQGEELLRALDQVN
As for `O=C(NC1Cc2ccccc2C1)c1cc(-c2ccccc2)on1`, the AC40 was > 38 µM (inactive). On to `COc1ccc(CNc2nc(-c3ccccn3)nnc2-c2ccccc2)cc1`, for which the AC40 is 1.09 µM. For the compound `OCC1CCN(Cc2ccc(O)c3ncccc23)CC1`, the AC40 was 3.69 µM. As for `c1ccc(-c2nnc(-c3ccccn3)nc2NCCN2CCOCC2)cc1`, the AC40 is 8.15 µM. Same read-out and setting: next, `N#CC1(c2ccccc2)CCN(Cc2ccc(O)c3ncccc23)CC1`: 19.8 µM; `c1ccc(-c2nnc(-c3ccccn3)nc2NCc2cccnc2)cc1`: 4.19 µM.

`O=C(NC1CCc2ccccc2C1)c1cc(-c2ccccc2)on1` (configuration not stated): the AC40 is > 38 µM (inactive). Same read-out and setting: next, `O=C(NCCN1CCCCC1)c1cc(-c2ccccc2)on1`: > 38 µM (inactive); `c1ccc(-c2nnc(-c3ccccn3)nc2NCc2ccccn2)cc1`: 5.02 µM; `CC(C)(C)CCNC(=O)c1cc(-c2ccccc2)on1`: > 38 µM (inactive).

For the compound `Cc1ccccc1CNc1nc(-c2ccccn2)nnc1-c1ccccc1`, the AC40 was 0.628 µM.

Consider `Cc1cccc(CNc2nc(-c3ccccn3)nnc2-c2ccccc2)c1`, for which the AC40 is 1.31 µM. On the same count and under the same terms, next, `Oc1ccc(CNC2CCc3ccccc32)c2cccnc12` (configuration not stated): 13.5 µM; `c1ccc(-c2cccc(CNc3nc(-c4ccccn4)nnc3-c3ccccc3)c2)cc1`: 0.359 µM.

`c1ccc(-c2nnc(-c3ccccn3)nc2NCCc2ccccn2)cc1`: the AC40 was 6.24 µM.

Turning to `c1ccc(-c2nnc(-c3ccccn3)nc2N2CCN(c3ccncc3)CC2)cc1`, the AC40 is 3.16 µM.

With `C=CCNc1nc(-c2ccccn2)nnc1-c1ccccc1`, the AC40 is 4.73 µM. The same measure, in the same setting: next, `Cc1ccc(CNc2nc(-c3ccccn3)nnc2-c2ccccc2)cc1`: 0.727 µM. The same measure, in the same setting: next, `OCC1CCN(c2nc(-c3ccccn3)nnc2-c2ccccc2)CC1`: 11 µM. On the same count and under the same terms, next, `Oc1ccc(CN2CCc3ccccc3C2)c2cccnc12`: 4.51 µM and 18.1 µM; `CCCCNC(=O)c1cc(-c2ccccc2)on1`: 7.07 µM. `O=C(NCCCO)c1cc(-c2ccccc2)on1`: the AC40 is 6.49 µM. On the same count and under the same terms, next, `C[C@@H](Nc1nc(-c2ccccn2)nnc1-c1ccccc1)c1ccccc1`: 1.5 µM; `O=C(NCCCn1ccnc1)c1cc(-c2ccccc2)on1`: 6.13 µM. Turning to `O=C(Nc1nc2ccccc2s1)c1cc(-c2ccccc2)on1`, the AC40 is 34.9 µM. The same measure, in the same setting: next, `Cc1cccc(Nc2nc(-c3ccccn3)nnc2-c2ccccc2)n1`: 2.72 µM. The same measure, in the same setting: next, `COc1ccccc1N1CCN(Cc2ccc(O)c3ncccc23)CC1`: 14.8 µM. On the same count and under the same terms, next, `CC(C)(C)CCNc1nc(-c2ccccn2)nnc1-c1ccccc1`: 0.357 µM and 0.401 µM; `Cc1ccc(Nc2nc(-c3ccccn3)nnc2-c2ccccc2)cn1`: 6.61 µM. Turning to `Oc1ccc(CN2CCC3CCCCC3C2)c2cccnc12` (configuration not stated), the AC40 is 5.14 µM. `c1ccc(-c2nnc(-c3ccccn3)nc2N2CCC(C3CCCCC3)C2)cc1` (configuration not stated): the AC40 is 0.265 µM.

Take `CC(C)(C)OC(=O)N1CCN(Cc2ccc(O)c3ncccc23)CC1`: the AC40 is 23.8 µM.

For the compound `c1ccc(CCNc2nc(-c3ccccn3)nnc2-c2ccccc2)cc1`, the AC40 is 4.89 µM. On to `O=C(NCCCN1CCOCC1)c1cc(-c2ccccc2)on1`, for which the AC40 was 17.7 µM.

`Cc1ccc(NC(=O)c2cc(-c3ccccc3)on2)cn1`: the AC40 was > 38 µM (inactive).

Take `c1ccc(-c2nnc(-c3ccccn3)nc2NCC2CCCCC2)cc1`: the AC40 is 0.801 µM. On the same count and under the same terms, next, `CC(C)(C)c1ccc(CNc2nc(-c3ccccn3)nnc2-c2ccccc2)cc1`: 0.249 µM; `c1ccc(-c2ccc(CNc3nc(-c4ccccn4)nnc3-c3ccccc3)cc2)cc1`: 0.164 µM; `c1ccc(-c2nnc(-c3ccccn3)nc2Nc2cnc3ccccc3n2)cc1`: 1.94 µM. Same read-out and setting: next, `C[C@H](Nc1nc(-c2ccccn2)nnc1-c1ccccc1)C1CCCCC1`: 0.635 µM.

Take `c1ccc(-c2nnc(-c3ccccn3)nc2NCC2CCOCC2)cc1`: the AC40 was 7.28 µM. Consider `Clc1cccc(CNc2nc(-c3ccccn3)nnc2-c2ccccc2)c1`, for which the AC40 was 0.74 µM. The same measure, in the same setting: next, `OCCCNc1nc(-c2ccccn2)nnc1-c1ccccc1`: 10.8 µM.

As for `CC1CN(Cc2ccc(O)c3ncccc23)CC(C)O1` (configuration not stated), the AC40 is 20.8 µM. The same measure, in the same setting: next, `c1ccc(-c2nnc(-c3ccccn3)nc2NCCCN2CCOCC2)cc1`: 7.52 µM; `COc1cccc(CNc2nc(-c3ccccn3)nnc2-c2ccccc2)c1`: 1.57 µM; `c1ccc(-c2nnc(-c3ccccn3)nc2NCC2CC2)cc1`: 2.07 µM. Still for that read-out and setting: next, `c1ccc(-c2csc(Nc3nc(-c4ccccn4)nnc3-c3ccccc3)n2)cc1`: 1.05 µM; `CC(Nc1nc(-c2ccccn2)nnc1-c1ccccc1)c1ccccc1` (configuration not stated): 1.1 µM. On the same count and under the same terms, next, `O=C(NCC1CC1)c1cc(-c2ccccc2)on1`: 15.4 µM; `c1ccc(-c2cnc(Nc3nc(-c4ccccn4)nnc3-c3ccccc3)s2)cc1`: 19.7 µM. Regarding `CN1CCN(c2nc(-c3ccccn3)nnc2-c2ccccc2)CC1`, the AC40 is 5.53 µM. As for `Cn1c(-c2ccccc2)cnc1Nc1nc(-c2ccccn2)nnc1-c1ccccc1`, the AC40 was > 13.5 µM (inactive). On the same count and under the same terms, next, `CN(C)c1nc(-c2ccccn2)nnc1-c1ccccc1`: 10.4 µM; `O=C(NCCN1CCOCC1)c1cc(-c2ccccc2)on1`: 20.6 µM; `Oc1ccc(CNC2Cc3ccccc3C2)c2cccnc12`: 5.59 µM. Same read-out and setting: next, `c1ccc(-c2nnc(-c3ccccn3)nc2N2CCC(N3CCOCC3)CC2)cc1`: 5.88 µM; `C[C@@H](Nc1nc(-c2ccccn2)nnc1-c1ccccc1)C1CCCCC1`: 0.456 µM; `Oc1ccc(CN2CCC(Cc3ccccc3)CC2)c2cccnc12`: 8.98 µM. Still for that read-out and setting: next, `c1ccc(-c2nnc(Nc3nc(-c4ccccn4)nnc3-c3ccccc3)s2)cc1`: 13.7 µM; `Cc1ccc(CNc2nc(-c3ccccn3)nnc2-c2ccccc2)cc1C`: 0.736 µM. As to `c1ccc(CNc2nc(-c3ccccn3)nnc2-c2ccccc2)cc1`, the AC40 is 1.93 µM. The same measure, in the same setting: next, `c1ccc(-c2nnc(-c3ccccn3)nc2N2CCC(c3ccccc3)C2)cc1` (configuration not stated): 0.689 µM; `O=C(NCCCCO)c1cc(-c2ccccc2)on1`: 1.89 µM. In the case of `c1ccc(-c2nnc(-c3ccccn3)nc2Nc2nc3ccccc3s2)cc1`, the AC40 was 0.491 µM.

Still in this assay, the particulars now being: U2OS GFP-HIF1alpha nuclear intensity imaging; at 38 µM (top of the series).
Consider `O=C(Nc1nnc(-c2ccccc2)s1)c1cc(-c2ccccc2)on1`, for which the activation was -3.81% (inactive). Still for that read-out and setting: next, `Cn1c(-c2ccccc2)cnc1NC(=O)c1cc(-c2ccccc2)on1`: 12.3% (inactive); `CN1CCN(C(=O)c2cc(-c3ccccc3)on2)CC1`: -2.52% (inactive). `O=C(Nc1ncc(-c2ccccc2)o1)c1cc(-c2ccccc2)on1`: the activation was -4.43% (inactive). The same measure, in the same setting: next, `O=C(Nc1cn2ccccc2n1)c1cc(-c2ccccc2)on1`: 9.51% (inactive).

As for `O=C(NCc1ccccc1)c1cc(-c2ccccc2)on1`, the activation was 5.64% (inactive).

As for `O=C(Nc1nc(-c2ccccc2)cs1)c1cc(-c2ccccc2)on1`, the activation is 3.11% (inactive). The same measure, in the same setting: next, `O=C(c1cc(-c2ccccc2)on1)N1CCC(CO)CC1`: -3.23% (inactive); `O=C(Nc1ccc2ccccc2n1)c1cc(-c2ccccc2)on1`: -3.66% (inactive). Still for that read-out and setting: next, `O=C(c1cc(-c2ccccc2)on1)N1CCC(N2CCCC2)CC1`: 3.26% (inactive).

`Cc1cccc(NC(=O)c2cc(-c3ccccc3)on2)n1`: the activation was 0.577% (inactive). `Cn1c(NC(=O)c2cc(-c3ccccc3)on2)nc2ccccc21`: the activation is -4.79% (inactive). Same read-out and setting: next, `Cc1ccc(CNC(=O)c2cc(-c3ccccc3)on2)cc1`: 7.41% (inactive); `CN(C)CCNC(=O)c1cc(-c2ccccc2)on1`: 9.39% (inactive); `Cc1cccc(CNC(=O)c2cc(-c3ccccc3)on2)c1`: 9.64% (inactive). Same read-out and setting: next, `O=C(c1cc(-c2ccccc2)on1)N1CCc2cccnc21`: 3.77% (inactive). Still for that read-out and setting: next, `Cc1ccccc1CNC(=O)c1cc(-c2ccccc2)on1`: 3.19% (inactive); `O=C(Nc1cnc2ccccc2c1)c1cc(-c2ccccc2)on1`: -3.02% (inactive); `O=C(c1cc(-c2ccccc2)on1)N1CCN(c2ccncc2)CC1`: -1.92% (inactive). For `O=C(c1cc(-c2ccccc2)on1)N1CCC(N2CCOCC2)CC1`, the activation was -1.88% (inactive). For the compound `O=C(Nc1ncc2ccccc2n1)c1cc(-c2ccccc2)on1`, the activation was 10.3% (inactive). Same read-out and setting: next, `O=C(NCC1CCCCC1)c1cc(-c2ccccc2)on1`: 8.55% (inactive).
